{"source": "patent US7947280B2", "about": "(priority 2003, dated 2011)", "key": {"C57B/16 mice": {"tested_on": "C57B/16 mice", "experiment": "Magnetic resonance imaging after intraperitoneal apelin-12 injection", "type": "in vivo, mouse", "details": "post apelin-12 300 μg/kg intraperitoneal, one hour prior to scanning; n=9", "procedure": "Magnetic resonance imaging. […] Platinum needle ECG leads were inserted subcutaneously. Respiration was monitored by means of a pneumatic pillow sensor positioned against the abdomen. Mouse body temperature was maintained during scanning at 37° C. by a flow of heated air thermostatically controlled by a rectal temperature probe. Magnetic resonance images were acquired on a 4.7T Oxford magnet controlled by a Varian Inova console (Varian, Palo Alto, Calif.) using a transmit-receive, quadrature, volume coil with an inner diameter of 3.5 cm. Image acquisition was gated to respiration and to the ECG R wave (SA Instruments, Stony Brook, N.Y.). Coronal and sagittal scout images led to the acquisition of multiple contiguous 1 mm thick, short axis slices orthogonal to the interventricular septum. […] Planimetry measurements of end diastolic and end systolic dimension were derived offline from short axis views of the left ventricle at the level of the papillary muscles using ImageJ software (National Institutes of Health, Bethesda, Md.). Ejection fraction was calculated as [[…]. Data Analysis. […] Exact p values are reported for all comparisons."}, "ApoE-KO mice": {"tested_on": "ApoE-KO mice", "experiment": "Vein graft neointimal hyperplasia model", "type": "in vivo, mouse", "procedure": "Animals. Mice were maintained in temperature-controlled (20° C. to 22° C.) environment with a 12-hour light-dark cycle. Sterile water and standard chow diet were available ad libitum. All mice were C57BL/6J ApoE-KO male mice (Jackson Laboratories, Bar Harbor, […].) between the ages of 8-12 weeks. […] Animal procedures were carried out in accordance with the Institutional Review Board Guidelines at Stanford University."}, "C57B1/6 mice": {"tested_on": "C57B1/6 mice", "procedure": "Pressure-volume hemodynamics. Pressure-volume hemodynamics were assessed using the Aria System (Millar Instruments, Houston, Tex.). Male C57B1/6 mice aged 8-12 weeks (n=10) were anesthetized with 1-2% isoflurane in oxygen. The internal jugular vein was cannulated with PE tubing and a 10% albumin solution infused at 5 μl/min following a bolus of 150 μl over 5 minutes. After tracheotomy, a 19G cannula was inserted into the trachea and the animal was ventilated at a tidal volume of 200 μl at 100 breaths per minute (Harvard Apparatus, Holliston, Mass.). Mice were warmed throughout the procedure and constantly monitored for depth of anesthesia. Following an incision just dorsal to the xyphoid cartilage, the diaphragm was visualized from below, and after diaphragmatic incision, the left ventricular apex was visualized. The pressure-volume catheter was then inserted along the long axis of the left ventricle, from where it was adjusted to obtain rectangular shaped pressure-volume loops. Appropriate position was verified post mortem (FIG. 1, Panel D). […] Signals from the catheter were digitized using the Powerlab system (ADInstruments, Colorado Springs, Colo.) and stored for offline analysis using the PVAN software (Pressure-volume ANalysis, Millar Instruments, Houston, Tex.).\nData Analysis. Data were analyzed using Student's t statistic (paired) or the repeated measures analysis of variance using the post hoc comparison of Fisher (NCSS 2002). Exact p values are reported for all comparisons."}, "[1]": {"tested_on": "superoxide production in aortic tissue of apoE knockout mice", "experiment": "Lucigenin-enhanced chemiluminescence of aortic superoxide", "type": "in vivo, mouse", "details": "addition of apelin to AngII", "procedure": "Lucigenin-enhanced chemiluminescence. Total aortic superoxide was measured by lucigenin-enhanced chemiluminescence as described previously. Aortas were harvested flushed with Krebs-HEPES buffer, opened longitudinally and divided into halves. Vessels were gassed with 95% oxygen/5% carbon dioxide in warmed Krebs-HEPES buffer for 30 minutes before measurements of chemiluminescence in a luminometer (manufacturer, location) using 20 μmol/L lucigenin. One half of each vessel was incubated in L-NAME (1 mmol/L). After measuring baseline readings for 4 minutes, samples were equilibrated and dark adapted for 5 mins, and chemiluminescence was recorded for 10 minutes. Recordings were performed blinded to the samples identity. Results were expressed as counts per second per milligram of tissue dry weight."}, "[2]": {"tested_on": "isolated human saphenous vein", "details": "Katugampola et al.; cited from earlier work"}, "AT1R": {"biological_target": "T1, AT1R (Rattus norvegicus, UniProt P25095)", "T1 construct": "expressed in transfected cells; host or cells: HEK-293", "T1 sequence (P25095 1-359)": "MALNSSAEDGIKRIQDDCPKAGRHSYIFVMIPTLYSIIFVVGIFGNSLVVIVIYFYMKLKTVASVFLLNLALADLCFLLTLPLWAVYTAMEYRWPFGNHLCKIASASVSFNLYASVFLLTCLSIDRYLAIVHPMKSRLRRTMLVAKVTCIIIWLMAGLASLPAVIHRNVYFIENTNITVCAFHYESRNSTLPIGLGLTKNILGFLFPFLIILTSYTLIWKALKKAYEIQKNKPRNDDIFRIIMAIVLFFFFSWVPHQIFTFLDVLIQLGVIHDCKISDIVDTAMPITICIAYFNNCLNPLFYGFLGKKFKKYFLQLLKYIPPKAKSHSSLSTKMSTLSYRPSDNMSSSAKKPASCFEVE", "experiment": "Competitive ligand binding with FAM-labeled AngII in HEK-293 cells", "details": "unlabeled ligand 100 nM; HEK-293 cells transfected with AT1R"}, "isolated rat heart": {"tested_on": "isolated rat heart", "details": "Szokodi et al; cited from earlier work"}, "[3]": {"details": "post 100 nM Apelin-12 infused at 5 μl/min for 20 minutes"}}, "note": "“And” between values parts separate entries of the source, which are not always exact repeats. Equal entries are not always repeated. “Also recorded” adds a separate entry of the source.", "data": [{"substance": "apelin", "values": [{"measurement": "Ejection fraction", "setting": "C57B/16 mice", "value": "67.7±1.6", "unit": "%"}, {"measurement": "heart rate (inverse of R-R interval of electrocardiogram)", "setting": "C57B/16 mice", "value": "559±19", "unit": "beats per minute"}, {"measurement": "left ventricular end diastolic area", "setting": "C57B/16 mice", "value": "0.104±0.005", "unit": "cm2"}, {"measurement": "reduction of mean vessel wall area", "setting": "ApoE-KO mice; apelin added to AngII treated animals", "value": 34, "unit": "%"}, {"measurement": "reduction of mean vessel wall area vs saline treated controls", "setting": "ApoE-KO mice; apelin, 4 weeks following vein graft surgery", "value": 42, "unit": "%"}, {"measurement": "Time constants of relaxation", "setting": "C57B1/6 mice; after apelin infusion", "value": "not different"}, {"measurement": "slope and intercept of linear fit of end diastolic pressure-volume relationship", "setting": "C57B1/6 mice; after apelin infusion", "value": "not different"}, {"measurement": "Arterial elastance", "setting": "C57B1/6 mice; following apelin infusion", "value": "did not change significantly"}, {"measurement": "dP/dtmax", "setting": "C57B1/6 mice; following apelin infusion", "value": "did not change"}, {"measurement": "end systolic pressure", "setting": "C57B1/6 mice; following apelin infusion", "value": "reduced"}, {"measurement": "EDV mean", "setting": "C57B1/6 mice; [3]", "value": 26.2}, {"measurement": "Emax (time varying elastance)", "setting": "C57B1/6 mice; [3]", "value": "12.7±3.1 and 12.7"}, {"measurement": "HR mean", "setting": "C57B1/6 mice; [3]", "value": 353}, {"measurement": "PRSW intercept mean", "setting": "C57B1/6 mice; [3]", "value": 11.3}, {"measurement": "LV end diastolic volume", "setting": "C57B1/6 mice; post apelin infusion", "value": "26.2±5.9", "unit": "RVU"}, {"measurement": "constant k1 of monoexponential fit LVEDP=k1*exp(k2*LVEDV)", "setting": "C57B1/6 mice; post apelin infusion", "value": "0.111±0.002"}, {"measurement": "exponential k2 of monoexponential fit LVEDP=k1*exp(k2*LVEDV)", "setting": "C57B1/6 mice; post apelin infusion", "value": "0.69±0.41"}, {"measurement": "heart rate", "setting": "C57B1/6 mice; post apelin infusion, invasive study", "value": "353±33", "unit": "bpm"}, {"measurement": "AngII stimulated increase in total chemiluminescence", "setting": "[1]", "value": "abolished"}, {"measurement": "effect on isolated human saphenous vein", "setting": "[2]", "value": "potently contracts"}, {"measurement": "competition for binding of FAM-AngII (10 nM) to AT1R", "setting": "AT1R", "value": "did not compete; also recorded: could not compete; also recorded: does not compete"}, {"measurement": "EC50, contractility of the isolated rat heart", "setting": "isolated rat heart", "value": "low picomolar range"}]}]}
